The results in this text go back to ChEMBL document CHEMBL1150270, “Effect of the major glycosides of Harpagophytum procumbens (Devil's Claw) on epidermal cyclooxygenase-2 (COX-2) in vitro” (2008).

Common to all, as to type: functional
Experiment [1] is filed under the species Sus scrofa. As to the kind of experiment: Increase in COX2 expression in pig skin at 500 uM by Western blotting. For orientation: Immunoblotting shows a protein as a band on a membrane.
The species entered for experiment [2] is Sus scrofa. As to the kind of experiment: Inhibition of COX2 synthesis in pig skin.
The species named for experiment [3] is Sus scrofa. In words: Suppression of COX2 expression in pig skin by immunostaining after 6 hrs.
For experiment [4], the species on record is Sus scrofa. As to the kind of experiment: Reduction of COX2 expression in pig skin at 500 uM by Western blotting.

Active and inactive are the calls of the source. No cut-off for these calls is given here. A value given as a limit tells only on which side of the number the result lay.

As for `C[C@]1(O)C[C@@H](O)[C@]2(O)C=CO[C@@H](O[C@H]3O[C@H](CO)[C@@H](O)[C@H](O)[C@H]3O)[C@@H]21`, the result in the experiment listed under Sus scrofa [1] was Active.

With `C[C@]1(OC(=O)/C=C/c2ccccc2)C[C@@H](O)[C@]2(O)C=CO[C@@H](O[C@@H]3O[C@H](CO)[C@@H](O)[C@H](O)[C@H]3O)[C@@H]21` [HARPAGOSIDE], the “inhibition (INH)” value in the experiment listed under Sus scrofa [2] is below 50%. For the same molecule, the outcome in the experiment listed under Sus scrofa [3] was Active.

In the case of `C[C@@H]1O[C@@H](O[C@@H]2[C@@H](O)[C@H](OCCc3ccc(O)c(O)c3)O[C@H](CO)[C@H]2OC(=O)/C=C/c2ccc(O)c(O)c2)[C@H](O)[C@H](O)[C@H]1O` [ACETOSIDE], the “inhibition (INH)” value in the experiment filed under Sus scrofa [2] was below 50%. Also, the outcome in the experiment listed under Sus scrofa [3] was Active.

On to `C[C@]1(OC(=O)/C=C/c2ccc(O)cc2)C[C@@H](O)[C@]2(O)C=CO[C@@H](O[C@@H]3O[C@H](CO)[C@@H](O)[C@H](O)[C@H]3O)[C@@H]21`, for which the outcome in the experiment listed under Sus scrofa [4] and in the experiment filed under Sus scrofa [3] was Active. Also, the “inhibition (INH)” value in the experiment listed under Sus scrofa [2] is recorded as below 50%.

Consider `CC(C)Cc1ccc(C(C)C(=O)O)cc1` (stereo not given) [IBUPROFEN], for which the “inhibition (INH)” value in the experiment listed under Sus scrofa [2] was below 50%. Further, in the experiment filed under Sus scrofa [3], the result was Active.
